Experimental data: the supplement of paper PMC11061612

How the values were obtained:
Test in all cases: combination Emax (second highest fraction inhibited in the dose matrix, 72 h); higher = more inhibition; extreme values may be limits of the assay
[1] = tested on: MDA-MB-175-VII (Breast Carcinoma)
Summary of the method: (§1)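 Cell lines in DMEM/F12 or RPMI with 10% FBS were plated in 1536-well plates, held 24 hours at 37°C, 5% CO2, then given two-drug dose matrices for 72 hours (DMSO typically 0.2%). Viability was read by CellTiter-Glo 2.0 luminescence and scaled as inhibition from 0 (vehicle wells) to 1 (blank wells). Combination Emax is the second-highest inhibition in the matrix; Bliss excess is observed combination effect minus expected EA + EB − EA·EB, EA and EB being single-agent effects.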

[2] = tested on: NCI-H2170 (Squamous Cell Lung Carcinoma)
Summary of the method: as §1

[3] = tested on: RPMI-8402 (T-Lymphoblastic Leukemia)
Summary of the method: as §1

[4] = tested on: COR-L105 (Lung Adenocarcinoma)
Summary of the method: as §1

[5] = tested on: SNU-1 (Gastric Carcinoma)
Summary of the method: as §1

[6] = tested on: BT-474 (Breast Carcinoma)
Summary of the method: as §1

[7] = tested on: SBC-3 (Small Cell Lung Carcinoma)
Summary of the method: as §1

[8] = tested on: RS4-11 (B-Lymphoblastic Leukemia)
Summary of the method: as §1

[9] = tested on: SCC90 (Head and Neck Carcinoma)
Summary of the method: as §1

[10] = tested on: SUP-HD1 (Hodgkin's Lymphoma)
Summary of the method: as §1

MG-63 (Osteosarcoma) = tested on: MG-63 (Osteosarcoma)
Summary of the method: as §1

[11] = tested on: NCI-H1975 (Lung Adenocarcinoma)
Summary of the method: as §1

[12] = tested on: HT-3 (Cervical Carcinoma)
Summary of the method: as §1

SK-N-DZ (Neuroblastoma) = tested on: SK-N-DZ (Neuroblastoma)
Summary of the method: as §1

[13] = tested on: CAL-85-1 (Breast Carcinoma)
Summary of the method: as §1

[14] = tested on: NCI-H1944 (Lung Adenocarcinoma)
Summary of the method: as §1

[15] = tested on: ATN-1 (T-Lymphoblastic Leukemia)
Summary of the method: as §1

[16] = tested on: TK (B-Cell Non-Hodgkin's Lymphoma)
Summary of the method: as §1

[17] = tested on: HT-1197 (Bladder Carcinoma)
Summary of the method: as §1

SMILES | combination Emax [1] | combination Emax [2] | combination Emax [3] | combination Emax [4] | combination Emax [5] | combination Emax [6] | combination Emax [7] | combination Emax [8] | combination Emax [9] | combination Emax [10] | combination Emax (MG-63 (Osteosarcoma)) | combination Emax [11] | combination Emax [12] | combination Emax (SK-N-DZ (Neuroblastoma)) | combination Emax [13] | combination Emax [14] | combination Emax [15] | combination Emax [16] | combination Emax [17]
CN(CCO)CC[C@H](CSc1ccccc1)Nc1ccc(S(=O)(=O)NC(=O)c2ccc(N3CCC([C@@H](O)c4ccccc4-c4ccc(Cl)cc4)CC3)cc2)cc1S(=O)(=O)C(F)(F)F [AZD4320] + CN(C)CCCOc1ccc(-c2ccc3ncc4c(c3c2)n(C2CCOCC2)c(=O)n4C)cn1 [AZD0156] (first compound max 1 µM, 7x7, partner max 1 µM) | 0.224 | 0.613 | 0.903 | 0.261 | 0.397 | 0.211 | 0.163 | 1 | 0.496 | 0.961 | 0.136 | 0.256 | 0.143 | 0.697 | 0.29 | 0.322 | 0.656 | 0.998 | 0.142
CN(CCO)CC[C@H](CSc1ccccc1)Nc1ccc(S(=O)(=O)NC(=O)c2ccc(N3CCC([C@@H](O)c4ccccc4-c4ccc(Cl)cc4)CC3)cc2)cc1S(=O)(=O)C(F)(F)F [AZD4320] + Cn1cnc2c(F)c(Nc3ccc(Br)cc3Cl)c(C(=O)NOCCO)cc21 [Selumetinib] (first compound max 1 µM, 7x7, partner max 3 µM) | 0.598 | 0.676 | 0.999 | 0.543 | 0.952 | 0.282 | 0.981 | 1 | 0.881 | 0.983 | 0.365 | 0.417 | 0.257 | 0.827 | 0.683 | 0.702 | 0.732 | 0.987 | 0.41
Cc1c2c(nn1C)CSCc1cc(n(C)n1)CSc1cc(c3ccccc3c1)OCCCc1c(C(=O)O)n(C)c3c-2c(Cl)ccc13 [AZD5991] + C1CN(CCC1(C(=O)N[C@@H](CCO)C2=CC=C(C=C2)Cl)N)C3=NC=NC4=C3C=CN4 [Capivasertib] (first compound max 1 µM, 7x7, partner max 3 µM) | 0.488 | 0.415 | 0.929 | 0.248 | 0.613 | 0.746 | 0.334 | 0.519 | 0.966 | 0.777 | 0.228 | 0.623 | 0.307 | 0.182 | 0.145 | 0.344 | 0.989 | 0.17 | 0.419
Cc1c2c(nn1C)CSCc1cc(n(C)n1)CSc1cc(c3ccccc3c1)OCCCc1c(C(=O)O)n(C)c3c-2c(Cl)ccc13 [AZD5991] + C=CCn1c(=O)c2cnc(Nc3ccc(N4CCN(C)CC4)cc3)nc2n1-c1cccc(C(C)(C)O)n1 [AZD1775] (first compound max 1 µM, partner max 1 µM) | 0.216 | 0.749 | 1 | 0.454 | 0.6 | 0.469 | 0.602 | 0.995 | 0.952 | 0.82 | 0.395 | 0.677 | 0.631 | 0.948 | 0.43 | 0.737 | 1 | 0.927 | 0.593
Cc1c2c(nn1C)CSCc1cc(n(C)n1)CSc1cc(c3ccccc3c1)OCCCc1c(C(=O)O)n(C)c3c-2c(Cl)ccc13 [AZD5991] + CC1(C)CCC(CN2CCN(c3ccc(C(=O)NS(=O)(=O)c4ccc(NCC5CCOCC5)c([N+](=O)[O-])c4)c(Oc4cnc5[nH]ccc5c4)c3)CC2)=C(c2ccc(Cl)cc2)C1 [Venetoclax] (first compound max 1 µM, 7x7, partner max 1 µM) | 0.152 | 0.237 | 0.932 | 0.181 | 0.933 | 0.351 | 0.69 | 1 | 0.934 | 0.959 | 0.199 | 0.378 | 0.597 | 0.479 | 0.122 | 0.214 | 0.968 | 1 | 0.148
Cc1c2c(nn1C)CSCc1cc(n(C)n1)CSc1cc(c3ccccc3c1)OCCCc1c(C(=O)O)n(C)c3c-2c(Cl)ccc13 [AZD5991] + CCN(CCO)CCCOc1ccc2c(Nc3cc(CC(=O)Nc4cccc(F)c4)[nH]n3)ncnc2c1 [AZD2811] (first compound max 1 µM, 7x7, partner max 1 µM) | 0.288 | 0.655 | 1 | 0.262 | 0.551 | 0.442 | 0.531 | 0.991 | 0.908 | 0.787 | 0.232 | 0.485 | 0.907 | 0.293 | 0.267 | 0.35 | 0.976 | 0.289 | 0.2
Cc1c2c(nn1C)CSCc1cc(n(C)n1)CSc1cc(c3ccccc3c1)OCCCc1c(C(=O)O)n(C)c3c-2c(Cl)ccc13 [AZD5991] + CN(C)CCCOc1ccc(-c2ccc3ncc4c(c3c2)n(C2CCOCC2)c(=O)n4C)cn1 [AZD0156] (first compound max 1 µM, 7x7, partner max 1 µM) | 0.209 | 0.317 | 0.795 | 0.258 | 0.584 | 0.306 | 0.292 | 0.565 | 0.904 | 0.617 | 0.251 | 0.599 | 0.479 | 0.265 | 0.206 | 0.259 | 0.929 | 0.313 | 0.217
Cc1c2c(nn1C)CSCc1cc(n(C)n1)CSc1cc(c3ccccc3c1)OCCCc1c(C(=O)O)n(C)c3c-2c(Cl)ccc13 [AZD5991] + C[C@@H]1COCCN1C2=NC(=NC(=C2)C3(CC3)[S@](=N)(=O)C)C4=C5C=CNC5=NC=C4 [AZD6738] (first compound max 1 µM, 7x7, partner max 10 µM) | 0.259 | 0.683 | 0.999 | 0.511 | 0.794 | 0.334 | 0.746 | 1 | 0.928 | 0.891 | 0.491 | 0.664 | 0.907 | 0.931 | 0.584 | 0.928 | 1 | 0.895 | 0.466
Cc1c2c(nn1C)CSCc1cc(n(C)n1)CSc1cc(c3ccccc3c1)OCCCc1c(C(=O)O)n(C)c3c-2c(Cl)ccc13 [AZD5991] + C[C@@H](Nc1cc(F)cc(F)c1)c1cc(C(=O)N(C)C)cc2c(=O)cc(N3CCOCC3)oc12 [AZD8186] (first compound max 1 µM, 7x7, partner max 3 µM) | 0.313 | 0.275 | 0.888 | 0.238 | 0.652 | 0.594 | 0.376 | 0.591 | 0.903 | 0.659 | 0.357 | 0.431 | 0.482 | 0.232 | 0.243 | 0.282 | 0.945 | 0.112 | 0.252
Cc1c2c(nn1C)CSCc1cc(n(C)n1)CSc1cc(c3ccccc3c1)OCCCc1c(C(=O)O)n(C)c3c-2c(Cl)ccc13 [AZD5991] + Cc1cc2ncnn2cc1Nc1ncc2c(n1)n(C1CCOCC1)c(=O)n2C [AZD7648] (first compound max 1 µM, 7x7, partner max 10 µM) | 0.263 | 0.397 | 0.836 | 0.33 | 0.485 | 0.301 | 0.456 | 0.501 | 0.937 | 0.576 | 0.329 | 0.46 | 0.353 | 0.207 | 0.402 | 0.384 | 0.925 | 0.204 | 0.267
CC(=O)Nc1cccc(-n2c(=O)n(C3CC3)c(=O)c3c(Nc4ccc(I)cc4F)n(C)c(=O)c(C)c32)c1 [Trametinib] + Cc1nc(-c2cn3c(n2)-c2ccc(-c4cnn(C(C)(C)C(N)=O)c4)cc2OCC3)n(C(C)C)n1 [Taselisib] (first compound max 1 µM, 7x7, partner max 10 µM) | 1 | 0.919 | 0.777 | 0.9 | 0.769 | 0.841 | 0.703 | 0.35 | 0.997 | 0.616 | 0.674 | 0.96 | 0.673 | 0.521 | 0.975 | 0.985 | 0.74 | 0.169 | 0.76
CC1(C)CCC(CN2CCN(c3ccc(C(=O)NS(=O)(=O)c4ccc(NCC5CCOCC5)c([N+](=O)[O-])c4)c(Oc4cnc5[nH]ccc5c4)c3)CC2)=C(c2ccc(Cl)cc2)C1 [Venetoclax] + C1CN(CCC1(C(=O)N[C@@H](CCO)C2=CC=C(C=C2)Cl)N)C3=NC=NC4=C3C=CN4 [Capivasertib] (first compound max 1 µM, 7x7, partner max 3 µM) | 0.393 | 0.375 | 0.498 | 0.23 | 0.256 | 0.383 | 0.543 | 1 | 0.813 | 0.877 | 0.317 | 0.562 | 0.0784 | 0.307 | 0.161 | 0.249 | 0.646 | 0.996 | 0.326
